# Measured values reported in patent US10626126B2, “Compounds” (Pulmocide Limited, priority 2016, dated 2020).
# What was measured:
# Type in all cases: cell-based
# RSV B Washington strain = experiment: RSV B induced CPE in HEp2 cells; conditions: human respiratory syncytial virus; for IC50: HEp-2, 144 h, 6 days; for inhibition at 0.1 µg/mL: HEp-2, at 0.1 μg/mL; for inhibition at 1 µg/mL: HEp-2, at 1 μg/mL
# Experimental: (§1) HEp2 cells were seeded (10^3/well/50 μL) in 384-well plates (Catalogue number 353962, BD Falcon, Oxford, UK) in 5% FBS-DMEM (containing 2 mM L-glutamine and 1 mM sodium pyruvate) one day before infection. […] Simultaneously, test compounds (0.5 μL DMSO solution) were added to 100 μL of HEp2 cell culture with virus solution to provide a final DMSO solution of 0.5%. […] Sigma-Aldrich, Dorset, UK) was added to each well and the plate incubated for a further 6 hr (37° C./5% CO2). The fluorescence of each well [545 nm (excitation)/590 nm (emission)] was determined using a multi-scanner (Clariostar: BMG, Buckinghamshire, UK). The percentage inhibition for each well was calculated and the IC50, IC75 and IC90 values were calculated from the concentration-response curve generated for each test compound.
# [1] = Cell viability: resazurin assay; conditions: human, HEp2 cells
# Experimental: HEp2 cells were seeded in 384-well plates (10^3/well/50 μL; BD Falcon Ref 353962) in FBS DMEM (5%, containing 2 mM L-glutamine and 1 mM sodium pyruvate) one day before experimentation. Serum-free DMEM (50 μL) was added to test wells, while for control wells the media was removed and sterile water (100 μL) added. Test compounds (0.5 μL DMSO solution) were added to give a final DMSO concentration of 0.5%. HEp2 cells were incubated with each test compound for 5 days (37° C./5% CO2 in 2.5% FBS) and then resazurin stock solution (5 μL; 0.03%) was added to each well and the plate incubated for a further 6 hr (37° C./5% CO2). The fluorescence of each well at 545 nm (excitation) and 590 nm (emission) was determined using a multi-scanner (Clariostar: BMG Labtech). The percentage loss of cell viability was calculated for each well relative to vehicle (0.5% DMSO) treatment. Note that any apparent increase in cell viability associated with test compound treatment relative to vehicle is consequently tabulated as a negative percentage. Where appropriate, a CC50 value was calculated from the concentration-response curve generated from the concentration-response curve for each test compound.
# RSV A2 strain = experiment: RSV A2 induced CPE in HEp2 cells; conditions: human respiratory syncytial virus; for IC50: HEp-2, 120 h, 5 days; for inhibition at 0.01 µg/mL: HEp-2, at 0.01 μg/mL
# Experimental: as §1
Structure (SMILES),IC50 (RSV B Washington strain),IC50 (RSV A2 strain),inhibition at 0.1 µg/mL (RSV B Washington strain),CC50 at 5 days [1],inhibition at 0.01 µg/mL (RSV A2 strain),inhibition at 1 µg/mL (RSV B Washington strain)
"[2H]c1c([2H])c(C(=O)N2CCc3cc(C(=O)Nc4c(F)cccc4F)sc3-c3sccc32)c([2H])c([2H])c1NC(=O)c1cc(C)cnc1N1CC2(CCOCC2)C1 [Example 3, N-(2,6-difluorophenyl)-4-(4-(5-methyl-2-(7-oxa-2-azaspiro[3.5]nonan-2-yl)nicotinamido)benz-y-2,3,5,6-d4)-5,6-dihydro-4H-dithieno[3,2-b:2′,3′-d]azepine-8-carboxamide]",0.014 µM,0.00015 µM,100%,> 13.7 µM,95%,–
"Cc1ccc(C(=O)Nc2ccc(C(=O)N3CCc4cc(C(=O)Nc5c(F)cccc5F)sc4-c4sccc43)c(F)c2)c(N2CC3(CCOCC3)C2)n1 [Example 5, N-(2,6-Difluorophenyl)-4-(2-fluoro-4-(6-methyl-2-(7-oxa-2-azaspiro[3.5]nonan-2-yl)nicotinamido)benzoyl)-5,6-dihydro-4H-dithieno[3,2-b:2′,3′-d]azepine-8-carboxamide]",0.019 µM,0.00055 µM,97%,> 13.4 µM,89%,–
"O=C(Nc1c(F)cccc1F)c1cc2c(s1)-c1sccc1N(C(=O)c1ccc(NC(=O)c3cccnc3N3CC4(CCOCC4)C3)cc1)CC2 [Example 6, 4-(4-(2-(7-oxa-2-azaspiro[3.5]nonan-2-yl)nicotin-amido)benzoyl)-N-(2,6-difluorophenyl)-5,6-dihydro-4H-dithieno[3,2-b:2′,3′-d]azepine-8-carboxamide]",0.063 µM,0.00044 µM,–,> 14 µM,93%,95%
"Cc1cnc(N2CC3(CCOCC3)C2)c(C(=O)Nc2ccc(C(=O)N3CCc4cc(C(=O)Nc5ccccc5)sc4-c4sccc43)cc2)c1 [Example 8, 4-(4-(5-methyl-2-(7-oxa-2-azaspiro[3.5]nonan-2-yl)nicotinamido)benzoyl)-N-phenyl-5,6-dihydro-4H-dithieno [3,2-b:2′,3′-d]azepine-8-carboxamide]",0.137 µM,0.00068 µM,–,> 14.5 µM,100%,97%
"Cc1cnc(N2CC3(CCOCC3)C2)c(C(=O)Nc2ccc(C(=O)N3CCc4cc(C(=O)Nc5c(O)cccc5F)sc4-c4sccc43)cc2)c1 [Example 15, N-(2-fluoro-6-hydroxyphenyl)-4-(4-(5-methyl-2-(7-oxa-2-azaspiro[3.5]nonan-2-yl)nicotinamido)benzoyl)-5,6-dihydro-4H-dithieno[3,2-b:2′,3′-d]azepine-8-carboxamide]",0.086 µM,0.0003 µM,–,> 13.8 µM,100%,90%
"COc1cccc(F)c1NC(=O)c1cc2c(s1)-c1sccc1N(C(=O)c1ccc(NC(=O)c3cc(C)cnc3N3CC4(CCOCC4)C3)cc1)CC2 [Example 16, N-(2-fluoro-6-methoxyphenyl)-4-(4-(5-methyl-2-(7-oxa-2-azaspiro[3.5]nonan-2-yl)nicotinamido)benzoyl)-5,6-dihydro-4H-dithieno[3,2-b:2′,3′-d]azepine-8-carboxamide]",0.032 µM,0.00018 µM,100%,> 13.6 µM,96%,–
"Cc1cnc(N2CC3(CCOCC3)C2)c(C(=O)Nc2ccc(C(=O)N3CCc4cc(C(=O)Nc5c(F)cccc5F)sc4-c4sccc43)c(F)c2)c1 [Example 18, N-(2,6-difluorophenyl)-4-(2-fluoro-4-(5-methyl-2-(7-oxa-2-azaspiro[3.5]nonan-2-yl)nicotinamido)benzoyl)-5,6 dihydro-4H-dithieno[3,2-b:2′,3′-d]azepine-8-carboxamide]",0.014 µM,0.00017 µM,92%,> 13.4 µM,100%,–

# The next lines start with results.
IC50 (RSV B Washington strain),IC50 (RSV A2 strain),Structure (SMILES),inhibition at 0.1 µg/mL (RSV B Washington strain),CC50 at 5 days [1],inhibition at 0.01 µg/mL (RSV A2 strain),inhibition at 1 µg/mL (RSV B Washington strain)
0.0087 µM,0.00037 µM,"O=C(Nc1c(F)cccc1F)c1cc2c(s1)-c1sccc1N(C(=O)c1ccc(NC(=O)c3cc4c(nc3N3CC5(CCOCC5)C3)CCC4)cc1)CC2 [Example 2, 4-(4-(2-(7-Oxa-2-azaspiro[3.5]nonan-2-yl)-6,7-dihydro-5H-cyclopenta[b]pyridine-3-carboxamido)benzoyl)-N-(2,6-difluorophenyl)-5,6-dihydro-4H-dithieno[3,2-b: 2′,3′-d]azepine-8-carboxamide]",86%,> 13.3 µM,97%,–
0.018 µM,0.00028 µM,"Cc1cc(C(=O)Nc2ccc(C(=O)N3CCc4cc(C(=O)Nc5c(F)cccc5F)sc4-c4sccc43)cc2)c(N2CC3(CCOCC3)C2)nc1C [Example 4, N-(2,6-Difluorophenyl)-4-(4-(5,6-dimethyl-2-(7-oxa-2-azaspiro[3.5]nonan-2-yl)nicotinamido)benzoyl)-5,6-dihydro-4H-dithieno[3,2-b:2′,3′-d]azepine-8-carboxamide]",98%,> 13.5 µM,96%,–
0.097 µM,0.0026 µM,"O=C(Nc1c(F)cccc1F)c1cc2c(s1)-c1sccc1N(C(=O)c1ccc(NC(=O)c3cccnc3N3CC4(CCOCC4)C3)cc1F)CC2 [Example 7, 4-(4-(2-(7-oxa-2-azaspiro[3.5]nonan-2-yl)nicotinamido)-2-fluorobenzoyl)-N-(2,6-difluorophenyl)-5,6-dihydro-4H-dithieno[3,2-b:2′,3′-d]azepine-8-carboxamide]",–,> 13.7 µM,87%,82%
0.054 µM,0.00018 µM,"Cc1cnc(N2CC3(CCOCC3)C2)c(C(=O)Nc2ccc(C(=O)N3CCc4cc(C(=O)Nc5ccccc5F)sc4-c4sccc43)cc2)c1 [Example 9, N-(2-fluorophenyl)-4-(4-(5-methyl-2-(7-oxa-2-azaspiro[3.5]nonan-2-yl)nicotinamido)benzoyl)-5,6-dihydro-4H-dithieno[3,2-b:2′,3′-d]azepine-8-carboxamide]",100%,> 14.1 µM,100%,–
0.123 µM,0.00075 µM,"Cc1cnc(N2CC3(CCOCC3)C2)c(C(=O)Nc2ccc(C(=O)N3CCc4cc(C(=O)Nc5ccc(F)cc5F)sc4-c4sccc43)cc2)c1 [Example 10, N-(2,4-difluorophenyl)-4-(4-(5-methyl-2-(7-oxa-2-azaspiro[3.5]nonan-2-yl)nicotinamido)benzoyl)-5,6-dihydro-4H-dithieno[3,2-b:2′,3′-d]azepine-8-carboxamide]",–,> 13.8 µM,97%,100%
0.0083 µM,0.00021 µM,"Cc1cnc(N2CC3(CCOCC3)C2)c(C(=O)Nc2ccc(C(=O)N3CCc4cc(C(=O)Nc5c(C)cccc5F)sc4-c4sccc43)cc2)c1 [Example 11, N-(2-fluoro-6-methylphenyl)-4-(4-(5-methyl-2-(7-oxa-2-azaspiro[3.5]nonan-2-yl)nicotinamido)benzoyl)-5,6-dihydro-4H-dithieno[3,2-b:2′,3′-d]azepine-8-carboxamide]",100%,> 13.9 µM,100%,–
0.0012 µM,0.00014 µM,"Cc1cnc(N2CC3(CCOCC3)C2)c(C(=O)Nc2ccc(C(=O)N3CCc4cc(C(=O)Nc5c(Cl)cccc5Cl)sc4-c4sccc43)cc2)c1 [Example 13, N-(2,6-dichlorophenyl)-4-(4-(5-methyl-2-(7-oxa-2-azaspiro [3.5]nonan-2-yl)nicotinamido)benzoyl)-5,6-dihydro-4H-dithieno[3,2-b:2′,3′-d]azepine-8-carboxamide]",–,> 13.2 µM,77%,80%
0.019 µM,0.00017 µM,"Cc1cnc(N2CC3(CCOCC3)C2)c(C(=O)Nc2ccc(C(=O)N3CCc4cc(C(=O)Nc5c(F)cc(F)cc5F)sc4-c4sccc43)cc2)c1 [Example 17, 4-(4-(5-methyl-2-(7-oxa-2-azaspiro[3.5]nonan-2-yl)nicotinamido)benzoyl)-N-(2,4,6-trifluorophenyl)-5,6-dihydro-4H-dithieno[3,2-b:2′,3′-d]azepine-8-carboxamide]",100%,> 13.4 µM,92%,–
